In patent publication US20190062305A1, “PYRIDYL OR PYRAZINYL COMPOUNDS CARRYING A METHYL-BOUND ALPHA-AMINO ACID AMIDE GROUP” (ABBVIE DEUTSCHLAND GMBH & CO. KG, priority 2015, published 2019):
Structures can show the parent of a compound that is named as a salt. Where two headings read alike, the source gives them in different places.

Key:
5-HT2C receptor = target: T1, 5-HT2C receptor (Homo sapiens, UniProt P28335); experiment: Human 5-HT2C functional assay (beta-arrestin2 recruitment, U2OS_HTR2C_β-Arrestin cells); type: cell-based; details: for EC50: beta-arrestin2 recruitment, U2OS_HTR2C_β-Arrestin cells, 1.5 h incubation, read-out: EC50 5-HT2C (potency in functional assay); for Emax: relative efficacy vs response to 10 μM 5-HT or maximal 5-HT effect (100%)
T1 construct: host or cells: U2OS
T1 sequence (P28335 33-458): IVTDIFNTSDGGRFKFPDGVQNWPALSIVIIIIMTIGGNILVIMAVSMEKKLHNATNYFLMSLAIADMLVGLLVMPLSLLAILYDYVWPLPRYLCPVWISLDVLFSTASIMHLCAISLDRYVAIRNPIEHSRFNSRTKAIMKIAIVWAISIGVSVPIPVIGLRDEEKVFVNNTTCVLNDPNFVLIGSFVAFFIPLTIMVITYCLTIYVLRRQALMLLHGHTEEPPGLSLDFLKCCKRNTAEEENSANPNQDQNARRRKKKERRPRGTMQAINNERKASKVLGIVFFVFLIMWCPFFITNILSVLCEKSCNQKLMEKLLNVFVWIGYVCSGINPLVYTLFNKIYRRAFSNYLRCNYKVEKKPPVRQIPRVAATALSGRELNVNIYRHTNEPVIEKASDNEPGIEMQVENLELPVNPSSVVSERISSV
T1 sequence (P32121 whole entry partner): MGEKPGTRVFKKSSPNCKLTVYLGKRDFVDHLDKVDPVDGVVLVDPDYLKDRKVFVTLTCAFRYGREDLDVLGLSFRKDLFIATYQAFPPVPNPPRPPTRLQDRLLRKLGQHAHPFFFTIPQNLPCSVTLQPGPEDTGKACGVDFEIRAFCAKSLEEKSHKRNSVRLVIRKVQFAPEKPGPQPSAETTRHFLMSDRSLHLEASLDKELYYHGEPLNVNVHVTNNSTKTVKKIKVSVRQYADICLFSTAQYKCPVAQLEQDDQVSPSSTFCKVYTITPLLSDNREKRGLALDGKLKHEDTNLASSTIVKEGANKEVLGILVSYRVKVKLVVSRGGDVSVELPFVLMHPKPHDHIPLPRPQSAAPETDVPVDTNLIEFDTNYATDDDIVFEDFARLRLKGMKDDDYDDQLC
Method in brief: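 EC50 and relative efficacy came from 4-parameter variable-slope fits, normalised to 10 µM 5-HT or maximal 5-HT response (100%). Luminescent β-galactosidase enzyme-complementation signal was read after 1.5 h compound exposure in U2OS_HTR2C_β-Arrestin cells held in 1% serum medium from the prior day.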

[1] = Metabolic stability in human liver microsomes, unbound intrinsic clearance (Cl int/fu mic); type: in vitro ADME; details: 0.5 μM compound, NADPH; for CLint scaled at 0.5 μM: pH 7.4, human liver microsomes 0.25 mg/mL, read-out: Cl int, mic unb. (h) [l/h/kg] (unbound intrinsic clearance, human)
Method in brief: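 Unbound intrinsic clearance is CLint divided by fu mic, with the unbound fraction measured by 4 h HTDialysis at 37 °C of 0.25 mg/ml microsomes spiked with 0.5 µM compound. For CLint, 0.5 µM compound was incubated with 0.25 mg/mL human microsomes and 1.0 mM NADPH (pH 7.4, 37 °C). Substrate loss over 30 min was measured by LC-MS/MS and t1/2 assumed first-order kinetics.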

Row | Structure (SMILES) | EC50 (5-HT2C receptor) | Emax (5-HT2C receptor) | CLint scaled at 0.5 μM ([1]; human, liver microsomes) | CLint scaled at 0.5 μM [1] | Cl int, mic unb. (h) [l/h/kg] (unbound intrinsic clearance, human) ([1]; human liver microsomes 0.25 mg/mL)
1 | COc1nc(OC2CC(F)(F)C2(F)F)c(F)cc1CNC(=O)[C@@H]1CCCN1 (stereo partly drawn) [Example 112, (2S)—N-[[5-Fluoro-2-methoxy-6-(2,2,3,3-tetrafluorocyclobutoxy)-3-pyridyl]methyl]pyrrolidine-2-carboxamide; 2,2,2-trifluoroacetic Acid] | < 0.02 µM | > 70% | < 5 L/h/kg |  | 
2 | COc1nc(O[C@H]2CC[C@H](C(F)(F)F)CC2)c(F)cc1CN(C)C(=O)[C@@H]1CCCN1 [Example 116, (2S)—N-[[5-Fluoro-2-methoxy-6-[trans-4-(trifluoromethyl)cyclohexoxy]-3-pyridyl]methyl]-N-methyl-pyrrolidine-2-carboxamide Hydrochloride] | 0.02 to 0.2 µM | 50 to 70% | 5 to 50 L/h/kg |  | 
3 | COc1nc(OC2CCC(C(C)(F)F)CC2)c(F)cc1CNC(=O)[C@@H]1CCCN1 (single isomer, unassigned; isomer 1) [Example 73] | 0.2 to 1 µM | > 70% | 5 to 50 L/h/kg |  | 
4 | COc1nc(O[C@H]2CC[C@H](F)CC2)c(F)cc1CNC(=O)[C@@H]1CCCN1C [Example 28, (2S)—N-[[5-Fluoro-6-(trans-4-fluorocyclohexoxy)-2-methoxy-3-pyridyl]methyl]-1-methyl-pyrrolidine-2-carboxamide; Fumaric Acid] | < 0.02 µM | > 70% | < 5 L/h/kg |  | 
5 | COc1nc(NC2CCC2)c(F)cc1CNC(=O)[C@@H]1CCCN1 [Example 146, (2S)—N-[[6-(Cyclobutylamino)-5-fluoro-2-methoxy-3-pyridyl]methyl]pyrrolidine-2-carboxamide; 2,2,2-trifluoroacetic Acid] | 0.02 to 0.2 µM | > 70% | < 5 L/h/kg |  | 
6 | COc1nc(OC2CC(F)(F)C2)c(F)cc1CN(C)C(=O)[C@@H]1CCCN1C [Example 99, (2S)—N-[[6-(3,3-Difluorocyclobutoxy)-5-fluoro-2-methoxy-3-pyridyl]methyl]-N,1-dimethyl-pyrrolidine-2-carboxamide Hydrochloride] | 0.02 to 0.2 µM | 50 to 70% | < 5 L/h/kg |  | 
7 | COc1nc(NC2CCCCC2)c(F)cc1CNC(=O)[C@@H]1CCCN1 [Example 131, (2S)—N-[[6-(Cyclohexylamino)-5-fluoro-2-methoxy-3-pyridyl]methyl]pyrrolidine-2-carboxamide] | < 0.02 µM | > 70% | 5 to 50 L/h/kg |  | 
8 | COc1nc(N2CCCC(C(F)(F)F)C2)c(F)cc1CNC(=O)[C@@H]1CCCN1 (stereo partly drawn) [Example 153, (2S)—N-[[5-Fluoro-2-methoxy-6-[3-(trifluoromethyl)-1-piperidyl]-3-pyridyl]methyl]pyrrolidine-2-carboxamide; 2,2,2-trifluoroacetic Acid] | 0.02 to 0.2 µM | > 70% | 5 to 50 L/h/kg |  | 
9 | COc1nc(O[C@H]2CC[C@@H](F)CC2)c(F)cc1CNC(=O)[C@@H]1CCCN1 [Example 30, (2S)—N-[[5-Fluoro-6-(cis-4-fluorocyclohexoxy)-2-methoxy-3-pyridyl]methyl]-pyrrolidine-2-carboxamide; Fumaric Acid] | < 0.02 µM | > 70% | < 5 L/h/kg |  | 
10 | COc1nc(C2=CCC(OC)CC2)c(F)cc1CNC(=O)[C@@H]1CCCN1 (stereo partly drawn) [Example 167, (2S)—N-[[5-Fluoro-2-methoxy-6-(4-methoxycyclohexen-1-yl)-3-pyridyl]methyl]-pyrrolidine-2-carboxamide] | 0.2 to 1 µM | > 70% | < 5 L/h/kg |  | 
11 | COc1nc(CC2CCOCC2)c(F)cc1CNC(=O)[C@@H]1CCCN1 [Example 189, (2S)—N-[[5-Fluoro-2-methoxy-6-(tetrahydropyran-4-ylmethyl)-3-pyridyl]methyl]-pyrrolidine-2-carboxamide; 2,2,2-trifluoroacetic Acid] | 0.2 to 1 µM | 50 to 70% | < 5 L/h/kg |  | 
12 | COc1nc(OCC(F)(F)C(F)F)c(F)cc1CNC(=O)[C@@H]1CCCN1C [Example 91, (2S)—N-[[5-Fluoro-2-methoxy-6-(2,2,3,3-tetrafluoropropoxy)-3-pyridyl]methyl]-1-methyl-pyrrolidine-2-carboxamide Hydrochloride] | < 0.02 µM | > 70% | < 5 L/h/kg |  | 
13 | COc1nc(C2CC2C(F)(F)F)c(F)cc1CNC(=O)[C@@H]1CCCN1 (stereo partly drawn) [Example 139, (2S)—N-[[5-fluoro-2-methoxy-6-[2-(trifluoromethyl)cyclopropyl]-3-pyridyl]methyl]pyrrolidine-2-carboxamide; 2,2,2-trifluoroacetic Acid] | 0.2 to 1 µM | 30 to 50% | 5 to 50 L/h/kg |  | 
14 | COc1nc(OCC(F)(F)C(F)(F)C(F)(F)F)c(F)cc1CN(C)C(=O)[C@@H]1CCCN1 [Example 117, (2S)—N-[[5-Fluoro-6-(2,2,3,3,4,4,4-heptafluorobutoxy)-2-methoxy-3-pyridyl]-methyl]-N-methyl-pyrrolidine-2-carboxamide Hydrochloride] | < 0.02 µM | 50 to 70% |  | 5 to 50 L/h/kg | 
15 | COc1nc(OC2CCC(C(F)(F)F)CC2)c(F)cc1CNC(=O)[C@@H]1C[C@@H](F)CN1 (stereo partly drawn) [Example 35, (2S,4R)-4-Fluoro-N-[[5-fluoro-2-methoxy-6-[4-(trifluoromethyl)cyclohexoxy]-3-pyridyl]methyl]pyrrolidine-2-carboxamide; Fumaric Acid] | < 0.02 µM | > 70% | < 5 L/h/kg |  | 
16 | COc1nc(OC(C(F)(F)F)C(F)(F)F)c(F)cc1CNC(=O)[C@@H]1CCCN1 [Example 111, (2S)—N-[[5-Fluoro-2-methoxy-6-[2,2,2-trifluoro-1-(trifluoromethyl)ethoxy]-3-pyridyl]methyl]pyrrolidine-2-carboxamide Hydrochloride] | < 0.02 µM | > 70% | 5 to 50 L/h/kg |  | 
17 | COc1nc(N[C@H]2CC[C@H](C(F)(F)F)CC2)c(F)cc1CNC(=O)[C@@H]1CCCN1 [Example 143, (2S)—N-[[5-Fluoro-2-methoxy-6-[[trans-4-(trifluoromethyl)cyclohexyl]amino]-3-pyridyl]methyl]pyrrolidine-2-carboxamide] | < 0.02 µM | > 70% |  |  | + (from 50 to 500 l/h/kg)
18 | COc1nc(N(C)Cc2ccccc2)c(F)cc1CNC(=O)[C@@H]1CCCN1 [Example 179, (2S)—N-[[6-[N-Benzyl-N-methyl-amino]-5-fluoro-2-methoxy-3-pyridyl]methyl]-pyrrolidine-2-carboxamide; 2,2,2-trifluoroacetic Acid] | 0.2 to 1 µM | 50 to 70% | 5 to 50 L/h/kg |  | 
19 | COc1nc(OC2CCC(F)(F)CC2)c(F)cc1CNC(=O)C(C)N1CCC1 (stereo not drawn) [Example 43, 2-(Azetidin-1-yl)-N-[[6-(4,4-difluorocyclohexoxy)-5-fluoro-2-methoxy-3-pyridyl]-methyl]propanamide; Succinic Acid] | 0.02 to 0.2 µM | > 70% | < 5 L/h/kg |  | 
20 | COc1nc(OCC2CC(F)(F)C2(F)F)c(F)cc1CN(C)C(=O)[C@@H]1CCCN1C (stereo partly drawn) [Example 103, (2S)—N-[[5-Fluoro-2-methoxy-6-[(2,2,3,3-tetrafluorocyclobutyl)methoxy]-3-pyridyl]methyl]-N,1-dimethyl-pyrrolidine-2-carboxamide Hydrochloride] | 0.02 to 0.2 µM | 50 to 70% | < 5 L/h/kg |  | 
21 | COc1nc(NCc2ccccc2)c(F)cc1CNC(=O)[C@@H]1CCCN1 [Example 170, (2S)—N-[[6-(Benzylamino)-5-fluoro-2-methoxy-3-pyridyl]methyl]pyrrolidine-2-carboxamide; 2,2,2-trifluoroacetic Acid] | 0.02 to 0.2 µM | > 70% | < 5 L/h/kg |  | 
22 | COc1nc(OCC2CCC(F)(F)CC2)c(F)cc1CNC(=O)[C@@H]1CCCN1 [Example 4, (2S)—N-[[6-[(4,4-Difluorocyclohexyl)methoxy]-5-fluoro-2-methoxy-3-pyridyl]-methyl]pyrrolidine-2-carboxamide; Fumaric Acid] | < 0.02 µM | > 70% | 5 to 50 L/h/kg |  | 
23 | COc1nc(OC2CCC(C(F)(F)F)CC2)c(F)cc1CNC(=O)[C@@H]1C[C@@H](C)CN1 (stereo partly drawn) [Example 60, (2S,4R)—N-[[5-Fluoro-2-methoxy-6-[4-(trifluoromethyl)cyclohexoxy]-3-pyridyl]methyl]-4-methyl-pyrrolidine-2-carboxamide Hydrochloride] | 0.02 to 0.2 µM | 50 to 70% | 50 to 500 L/h/kg |  | 
24 | COc1nc(OCC2(C(F)(F)F)CC2)c(F)cc1CN(C)C(=O)[C@@H]1CCCN1C [Example 98, (2S)—N-[[5-Fluoro-2-methoxy-6-[[1-(trifluoromethyl)cyclopropyl]methoxy]-3-pyridyl]methyl]-N,1-dimethyl-pyrrolidine-2-carboxamide Hydrochloride] | 0.02 to 0.2 µM | 50 to 70% | < 5 L/h/kg |  | 
25 | COc1nc(C(F)(F)Cc2ccccc2)c(F)cc1CN(C)C(=O)[C@@H]1CCCN1 [Example 191, (2S)—N-[[6-(1,1-Difluoro-2-phenyl-ethyl)-5-fluoro-2-methoxy-3-pyridyl]methyl]-N-methyl-pyrrolidine-2-carboxamide Hydrochloride] | 0.2 to 1 µM | 30 to 50% | 5 to 50 L/h/kg |  | 
